Drawing on PubChem BioAssay AID1508591, this text covers half-life for 87 compounds.

Structures are written as SMILES.

The conditions of this data set: rat; liver microsomes; pH 7.4; 15.0 min; 1.0 µM.
In turn, `COCCNCc1ccc(-c2cc3nccc(Oc4ccc(NC(=S)NC(=O)Cc5ccc(F)cc5)cc4F)c3s2)nc1` registered a half-life of 10.3 min.

Take `Cc1ccnc(NC(=S)N2CCN(c3cccc(C(F)(F)F)n3)CC2)c1`: the half-life was determined as 15 min.

For `Cc1ccccc1C(=O)N1CCc2cc(-c3ccnc(NC(=O)Cc4ccccc4)n3)ccc21`, the half-life was found to be 5.5 min.

`CCc1nnc(NC(=O)c2nc(S(=O)(=O)Cc3ccc(C)cc3)ncc2Cl)s1` showed a half-life of 7.58 min.

With `NC(CO)(CO)CCc1ccc(Sc2cccc(OCc3ccccc3)c2)cc1Cl`, the half-life is above 30 min.

`O=C(Nc1nc(-c2ccccc2)cs1)c1ccncc1NS(=O)(=O)c1ccccc1` gave a half-life of 13 min.

Compound `Cc1ccc(-c2cc(C(=O)Nc3ccc(S(=O)(=O)N(C)Cc4nccs4)cc3)c3ccccc3n2)cc1C` had a half-life of 4.1 min.

`O=S(=O)(c1ccccc1)N1CCCCC1CCc1ccccc1` (configuration not stated) registered a half-life of 2.32 min.

`Cc1cc(C)nc(NC(=S)N2CCN(c3cccc(C(F)(F)F)c3)CC2)c1` came in with a half-life above 30 min.

On to `CCn1nnnc1Sc1ncnc2scc(-c3ccc(C)cc3)c12`, for which the half-life worked out at 1.4 min.

In turn, `COc1ccc(OC)c(Nc2c3c(nc4ccccc24)CCC3)c1` gave a half-life of 1.5 min.

In turn, `CCOc1cc2ncc(C#N)c(Nc3ccc(OCc4ccccn4)c(Cl)c3)c2cc1NC(=O)C=CCN(C)C` registered a half-life above 30 min.

Turning to `O=C(Nc1nc(-c2ccccc2)cs1)c1ccncc1NS(=O)(=O)c1cccnc1`, the half-life came to 20 min.

`NC1CCN(C(=O)C2CCCN(c3nc(-c4ccccc4)nc4c3CCC4)C2)CC1` (configuration not stated) displayed a half-life above 30 min.

Compound `CC1=Nc2cc(C(=O)NC3CCCC3)ccc2Sc2ccc(C)cc21` displayed a half-life of 3.31 min.

The compound `CCc1cccc(NS(=O)(=O)c2ccc3c(c2)CC(C)N3C(=O)C2CC2)c1` (configuration not stated) yielded a half-life of 1.96 min.

In turn, `Cc1ccc(-n2nc3c(=O)n(CCCC(=O)NCc4ccccc4F)nc(C)c3c2C)cc1` showed a half-life of 2.6 min.

Take `NC(=O)C1CCN(c2nccc(-c3ccc(Br)cc3)n2)CC1`: the half-life worked out at 19.3 min.

In the case of `CC[C@@H]1C(=O)N(C)c2cnc(Nc3ccc(C(=O)NC4CCN(C)CC4)cc3OC)nc2N1C1CCCC1`, the half-life was above 30 min.

The compound `CC(C)(C)OC(=O)N[C@@H](Cc1ccc(O[S+](=O)([O-])c2cccc3cnccc23)cc1)C(=O)Nc1ccc(-c2ccccc2)cc1` had a half-life of 2.55 min.

In the case of `COc1cccc(N2CCN(c3ncc4c(n3)CCN(Cc3ccc(Br)cc3)C4)CC2)c1`, the half-life worked out at 18.2 min.

As to `CCc1ccc(NC(=O)c2[nH]c(C)c(C(C)=O)c2C)cc1S(=O)(=O)Nc1ccc(Br)cc1`, the half-life turned out to be 23 min.

Compound `O=C(c1ccncc1)N1CCC2(CCCN(C(c3ccccc3)c3ccccc3)C2)CC1` displayed a half-life of 2.2 min.

`CC(C)c1cc(C(C)C)c(CC(=O)NS(=O)(=O)Oc2c(C(C)C)cccc2C(C)C)c(C(C)C)c1` registered a half-life of 28.2 min.

For the compound `Cc1cc2c(-c3cccc(O)c3)nc(-c3c(C)noc3C)cc2[nH]1`, the half-life was determined as 24.2 min.

`CC(C)COc1ccc(-c2ccc(=O)n(CC(=O)NCCc3ccccc3)n2)cc1`: the half-life was 1.8 min.

In turn, `O=[N+]([O-])c1ccc(-c2nc(Nc3ccc(F)c(F)c3)c3ccccc3n2)cc1` returned a half-life above 30 min.

Regarding `CCOC(=O)c1ccc(NC(=O)N2Cc3[nH]cnc3C[C@H]2c2nc(C(C)C)no2)cc1`, the half-life was 6.65 min.

`COc1ccc(-c2nc(N3CCOCC3)c3sc(CN(C)c4ncc(C(=O)NO)cn4)cc3n2)cn1`: the half-life was above 30 min.

In turn, `CCCc1oc2ccc(NS(=O)(=O)c3ccc(OC)cc3)cc2c1C(=O)OCC` returned a half-life of 1.37 min.

With `COC(=O)c1ccnc(-c2cc(C(=O)NCCc3ccccc3)ccn2)c1`, the half-life amounted to 1.98 min.

`CC(C)c1ccccc1-c1nc(NCc2ccc(-c3cccnc3)cc2)c2ccccc2n1`: the half-life amounted to 9.21 min.

For `O=C1Nc2ccccc2/C1=C\c1cc(Br)c(O)c(Br)c1`, the half-life turned out to be 26 min.

`Cc1ccccc1C(=O)N1CCc2cc(-c3cccc(NC(=O)Cc4ccc5c(c4)OCO5)c3)ccc21` displayed a half-life of 9.7 min.

Compound `CC1CCN(C(=O)c2ccc(-c3ccc(N4CCSCC4)nc3)cc2)CC1` showed a half-life of 1.52 min.

Take `COc1ccc(-n2nc(C)c([C@@H]3C=C[C@@H](NCc4ccc(N(C)C)cc4)C3)c2C)cc1`: the half-life was determined as 2.69 min.

The compound `CCN1CCN(C(=O)c2cc(-c3ccc(F)cc3)c3nncn3n2)CC1` returned a half-life above 30 min.

In the case of `C=CCON=C(C[C@H]1O[C@@H]2O[C@]3(C)CC[C@@H]4[C@H](C)CC[C@@H]([C@H]1C)[C@@]24OO3)[C@H]1O[C@@H]2O[C@]3(C)CC[C@H]4[C@H](C)CC[C@@H]([C@@H]1C)[C@@]24OO3`, the half-life was 2.8 min.

For `COC[C@@H]1CN(C(=O)c2nn(C)c3ccccc23)C[C@H]1c1nc(C)no1`, the half-life turned out to be 25.7 min.

As for `NC(=O)C1CCN(c2nccc(Cl)n2)CC1`, the half-life was above 30 min.

Take `COc1cc(-c2cc3c(nc2-c2ccccc2)nc(C(=O)NC2CCN(C)CC2)n3C)ccn1`: the half-life was above 30 min.

With `COc1ccc2[nH]c(=O)c(-c3noc(-c4ccccc4)n3)cc2c1`, the half-life is above 30 min.

In turn, `Cc1ccc(-c2ccc(CNc3nc(-c4ccccc4C(C)C)nc4ccccc34)cc2)cn1` returned a half-life of 8.23 min.

`COc1ccc2[nH]c3c(c2c1)CCNC31CCN(S(=O)(=O)c2c(C)noc2C)CC1` yielded a half-life above 30 min.

Compound `Cc1cccc(CN2CCN(c3ccccn3)CC2)c1` gave a half-life of 2.4 min.

In the case of `Cc1ccc(-n2ncc3c(NCCCn4ccnc4)ncnc32)cc1Cl`, the half-life worked out at 22.7 min.

For `COC1C(OC(=O)c2ccc(C)[nH]2)C(O)C(Oc2ccc3c(O)c(NC(=O)c4ccc(O)c(CC=C(C)C)c4)c(=O)oc3c2Cl)OC1(C)C` (configuration not stated), the half-life amounted to 28.3 min.

`COc1ccccc1NC(=O)c1oc2ccccc2c1NC(=O)Cc1cccs1` displayed a half-life of 6.77 min.

Take `CC1=C(C(=O)Nc2nccs2)C(c2ccccc2Br)N=C(Nc2nc3ccccc3o2)N1` (configuration not stated): the half-life was 27 min.

`NC(=O)C1CCN(c2nc(-c3cc4ccccc4o3)cs2)CC1` had a half-life of 4.21 min.

Turning to `CCCN1CNc2c(c(=O)[nH]c(=S)n2Cc2ccc(OC)c(OC)c2)C1`, the half-life was above 30 min.

`CCN(CCO)CCCOc1ccc2c(Nc3cc(CC(=O)Nc4cccc(F)c4)[nH]n3)ncnc2c1` displayed a half-life of 1.88 min.

`COc1cncc(Nc2ncc(-c3cccc(N(C)C)c3)c3c2OCC3)c1` had a half-life of 11.7 min.

As for `COC(=O)CNC(=O)c1nc(-c2ccc(Cl)nc2)c2cnccn12`, the half-life was 16.4 min.

`Cc1cc(C)nc(NC(=S)N2CCN(c3ccncc3)CC2)c1` showed a half-life above 30 min.

On to `O=C([C@H](Cc1ccc(O[S+](=O)([O-])c2cccc3cnccc23)cc1)N[S+](=O)([O-])c1cccc2cnccc12)N1CCN(Cc2ccccc2)CC1`, for which the half-life amounted to 16 min.

As to `O=C(Nc1nc(-c2ccccc2)cs1)c1ccncc1NS(=O)(=O)c1ccccc1Cl`, the half-life amounted to 15 min.

Regarding `CNc1oc(-c2ccc(-c3ccccc3)cc2)nc1C#N`, the half-life was above 30 min.

The compound `Cc1ccc(S(=O)(=O)Nc2ccc(OC(F)(F)F)cc2C(=O)Nc2nc(-c3ccccc3)cs2)cc1` had a half-life of 24 min.

Turning to `CCOC(=O)c1ccc(-n2c(C)cc(-c3nnc4n3CCCCC4)c2C)cc1`, the half-life turned out to be 2.7 min.

The compound `CCOC(=O)c1[nH]c(C)c(CCC(=O)N2CCN(c3cc(Cl)ccc3C)CC2)c1C` yielded a half-life of 1.8 min.

Regarding `COc1ccc(NC(=O)c2cccnc2C)cc1S(=O)(=O)Nc1ccc(Br)cc1`, the half-life was 11 min.

With `CN(C(=O)OC(C)(C)C)[C@@H](Cc1ccc(O[S+](=O)([O-])c2cccc3cnccc23)cc1)C(=O)N1CCN(C(=O)OCc2ccccc2)CC1`, the half-life came to 1.74 min.

Compound `Cc1cc(Br)ccc1NC(=O)C(NS(=O)(=O)c1cccs1)c1ccccc1` (configuration not stated) displayed a half-life of 7.26 min.

Compound `COc1ccc(-c2cc3nccn3c(Nc3ncccc3C(N)=O)n2)cc1OC` yielded a half-life above 30 min.

As to `N#Cc1ccccc1CSc1nc2ncc(Br)cc2[nH]1`, the half-life came out at 6.6 min.

Compound `CC(Cc1ccc(O)cc1)NCC(O)c1cc(O)cc(O)c1` (configuration not stated) yielded a half-life above 30 min.

`Cc1ccccc1N(C)C1CN([S+](=O)([O-])c2cccc(C(F)(F)F)c2)C1` returned a half-life of 1.98 min.

In turn, `CC1=C(C(=O)Nc2nncs2)C2(CCCC2)N=C(Nc2nc3ccccc3o2)N1` showed a half-life above 30 min.

`O=[S+]([O-])(Nc1cccc2cccnc12)c1ccc(NCc2ccc(Cl)cc2O)cc1`: the half-life was 2.4 min.

As for `O=C(Cn1c2ncccc2c(=O)n1-c1ccccc1)Nc1ccc(Cl)cc1C(F)(F)F`, the half-life came out at 4.81 min.

In the case of `CCCNC(=O)c1ccc2c(c1)ncn2-c1cc(C)cc(C)c1`, the half-life turned out to be 17 min.

`Cc1ccc(-n2ncc3c(NCCCN(C)C)ncnc32)cc1Cl` registered a half-life of 8.9 min.

Compound `COc1ccccc1-c1nnc2sc(-c3ccc(N(C)C)cc3)nn12` had a half-life of 2.24 min.

In the case of `Cc1ccccc1-c1nc(NCc2cccs2)c2ccccc2n1`, the half-life came out at 2.74 min.

Take `CN(C)S(=O)(=O)c1cccc(NC(=O)c2ccc[nH]2)c1`: the half-life came to 10.5 min.

In the case of `CCN1CCC(N(Cc2ccc3c(c2)OCO3)C(=O)Nc2cc(Cl)ccc2C(=O)OC)CC1`, the half-life is 6.72 min.

Take `Cc1ccc(S(=O)(=O)Nc2cnccc2C(=O)Nc2nc(-c3ccc(Cl)c(Cl)c3)cs2)cc1`: the half-life was above 30 min.

For `CN1CCCC1CCOC(c1cc2nccc(C(=O)O)c2[nH]1)c1ccccc1Cl` (configuration not stated), the half-life was above 30 min.

`O=C1Nc2ccccc2/C1=C/c1ccnc2ccccc12` registered a half-life of 4.5 min.

With `NCC1CCC(C(=O)Oc2ccc(CCC(=O)O)cc2)CC1` (configuration not stated), the half-life is above 30 min.

Turning to `Fc1cc(Nc2nc(-c3ccncc3)nc3ccccc23)ccc1N1CCCC1`, the half-life was determined as 5.8 min.

In the case of `O=C1NCc2ccc(-c3cc4c(ccn4Cc4cccnc4)c(C4=CCOCC4)n3)cc21`, the half-life was determined as 19.5 min.

Compound `Fc1cc(Nc2nc(-c3ccncc3)nc3ccccc23)ccc1-n1cncn1` had a half-life of 13 min.

Regarding `Nc1c(C(=O)Nc2ccc(Cl)c(C(F)(F)F)c2)sc2nc3c(cc12)N1CCC3CC1`, the half-life worked out at 22.1 min.

Compound `O=c1[nH]nc(Sc2ncc([N+](=O)[O-])s2)n1-c1ccc2c(c1)OCCO2` yielded a half-life of 1.02 min.

`Cc1ccc(S(=O)(=O)Nc2ccccc2C(=O)Nc2cnc(-c3ccccc3)cn2)cc1` showed a half-life of 3.5 min.
